Patent US10611760B2, “Therapeutic compounds as inhibitors of the orexin-1 receptor” (C4X Discovery Limited, priority 2014, dated 2020)
Where a name gives a salt, the structure may show the parent alone.

Assays:
Format in all cases: cell-based
hOX2R [1] = target: T1, hOX2R (Homo sapiens, UniProt O43614); assay: Intracellular calcium measurements using division-arrested cells, OX2; conditions: agonist orexin B at 2×EC50, * = single experiment, otherwise average of at least two, read-out: pIC50 OX2 (converted)
T1 sequence (O43614 1-444): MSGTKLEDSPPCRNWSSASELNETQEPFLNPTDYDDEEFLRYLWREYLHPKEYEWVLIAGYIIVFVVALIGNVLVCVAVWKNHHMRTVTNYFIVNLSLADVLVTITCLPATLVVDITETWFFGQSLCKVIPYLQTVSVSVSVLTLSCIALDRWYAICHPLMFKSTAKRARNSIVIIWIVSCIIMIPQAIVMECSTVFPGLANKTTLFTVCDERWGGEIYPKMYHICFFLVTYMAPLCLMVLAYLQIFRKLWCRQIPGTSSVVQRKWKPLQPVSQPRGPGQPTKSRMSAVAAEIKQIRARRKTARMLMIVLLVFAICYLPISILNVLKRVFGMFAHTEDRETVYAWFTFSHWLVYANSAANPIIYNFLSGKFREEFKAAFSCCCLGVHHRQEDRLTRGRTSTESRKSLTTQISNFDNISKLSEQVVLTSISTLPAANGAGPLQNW
Method: (§1) Intracellular Calcium Measurements Using Division-arrested Cells (Table 1):
(§2) Test compounds are prepared as 10 mM stock solutions in DMSO, then serially diluted in half log concentrations with DMSO followed by dilution with assay buffer (HBSS (Sigma-Aldrich, H8264) containing 20 mM HEPES (Sigma-Aldrich, H4034), 0.1% (w/v) bovine serum albumin and adjusted to pH 7.4) to a top final assay concentration of 10 μM.
(§3) Human OX1 (CT-A474) and human OX2 (CT-A475) receptor-expressing division-arrested cells are plated into 384 well black, clear bottom, cell-bind plates at a seeding density of 10,000 cells/50 μL growth media. The seeded plates are incubated at 37° C. in air supplemented with 5% CO2 for 16 hrs.
(§4) The media is removed and replaced with 30 μL/well of cell loading buffer (a vial of Calcium 5 is solubilized in 22 mL of assay buffer to which a freshly prepared 250 mM solution of probenecid in 1:1 1M NaOH to assay buffer (200 μL) is added) and the cells incubated for 1 hr at 37° C. The serially diluted test compounds (10 μL/well) are added to the plate, which is then incubated for 10 mins and placed in a FlexStation III reader.

hOX2R [2] = target: T1, hOX2R; assay: Intracellular calcium measurements using stable-replicating cells, Method B (CHO cells, FLIPR Tetra), OX2; conditions: orexin A at EC75, read-out: pIC50 OX2 (converted)
Method: (§5) Intracellular Calcium Measurements Using Stable-replicating Cells:
(§6) Human OX1 or human OX2 receptor expressing CHO cells are plated into 384 well black, clear bottom, CellBIND plates at a seeding density of 10,000 cells/75 μL growth media. The seeded plates are incubated at 37° C. in air supplemented with 5% CO2 overnight.
(§7) The next day media is removed and replaced with 30 μL/well of cell loading buffer (a vial of Calcium 5 is solubilized in 20 mL of assay buffer) and the cells incubated for 1 hr at 37° C. The serially diluted test compounds (10 μL/well) are added to the cell plate by the FLIPR Tetra and the addition is monitored for 5 mins by the instrument. The cell plate is then removed and incubated for additional 25 mins in a humidified incubator at […] prior to being placed back into the FLIPR Tetra. Finally 10 μL of orexin A in assay buffer +0.1% (w/v) bovine serum albumin is dispensed by the FLIPR Tetra at an EC75 concentration determined for each assay run. Fluorescence is measured at excitation and emission wavelengths of 485 nm and 525 nm respectively and data analyzed using GraphPad Prism for the EC75 value of orexin A and Aplus to determine an IC50 value for each test compound.

hOX1R [3] = target: T2, hOX1R (Homo sapiens, UniProt O43613); assay: Intracellular calcium measurements using division-arrested cells, OX1; conditions: agonist orexin A at 2×EC50, * = single experiment, otherwise average of at least two, read-out: pIC50 OX1 (converted)
T2 sequence (O43613 1-425): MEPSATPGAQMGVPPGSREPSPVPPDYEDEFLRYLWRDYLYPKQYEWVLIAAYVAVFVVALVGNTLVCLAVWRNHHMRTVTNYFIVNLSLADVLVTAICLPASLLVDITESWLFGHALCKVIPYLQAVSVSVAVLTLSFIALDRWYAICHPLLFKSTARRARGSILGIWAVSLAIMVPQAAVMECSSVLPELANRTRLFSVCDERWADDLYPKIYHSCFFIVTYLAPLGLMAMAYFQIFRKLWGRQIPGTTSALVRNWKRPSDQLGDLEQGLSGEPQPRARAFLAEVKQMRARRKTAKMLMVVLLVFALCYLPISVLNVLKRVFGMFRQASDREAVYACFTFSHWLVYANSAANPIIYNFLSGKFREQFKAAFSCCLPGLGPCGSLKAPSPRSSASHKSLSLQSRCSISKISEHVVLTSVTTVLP
Method: as §1, §2, §3, §4

hOX1R [4] = target: T2, hOX1R; assay: Intracellular calcium measurements using stable-replicating cells, Method B (CHO cells, FLIPR Tetra), OX1; conditions: orexin A at EC75, read-out: pIC50 OX1 (converted)
Method: as §5, §6, §7

SMILES: CC[C@@H](CNc1ccc(Cl)cn1)N(C)C(=O)c1cc(Br)ccc1-n1nccn1 [Example 19, (S)-5-bromo-N-(1-((5-chloropyridin-2-yl)amino)butan-2-yl)-N-methyl-2-(2H-1,2,3-triazol-2-yl)benzamide]
- IC50 (hOX2R [1]): 1.58 µM
- IC50 (hOX2R [2]): 0.501 µM
- IC50 (hOX1R [3]): 0.0251 µM
- IC50 (hOX1R [4]): 0.00158 µM

SMILES: CC[C@@H](CNc1ccc(Cl)cn1)N(C)C(=O)c1cc(OC(F)(F)F)ccc1-n1nccn1 [Example 20, (S)—N-(1-((5-chloropyridin-2-yl)amino)butan-2-yl)-N-methyl-2-(2H-1,2,3-triazol-2-yl)-5-(trifluoromethoxy)benzamide]
- IC50 (hOX2R [2]): 3.16 µM
- IC50 (hOX1R [3]): 0.2 µM
- IC50 (hOX1R [4]): 0.1 µM

SMILES: CC[C@@H](CNc1ccc(Cl)cn1)N(C)C(=O)c1cc(C(F)(F)F)cnc1-n1nccn1 [Example 24, (S)—N-(1-((5-chloropyridin-2-yl)amino)butan-2-yl)-N-methyl-2-(2H-1,2,3-triazol-2-yl)-5-(trifluoromethyl)nicotinamide]
- IC50 (hOX2R [1]): > 10 µM
- IC50 (hOX2R [2]): > 10 µM
- IC50 (hOX1R [3]): 2 µM
- IC50 (hOX1R [4]): 3.98 µM

SMILES: CC[C@@H](CNc1ccc(C(F)(F)F)nn1)N(C)C(=O)c1cc(Cl)ccc1-n1nccn1 [Example 41, (S)-5-chloro-N-methyl-2-(2H-1,2,3-triazol-2-yl)-N-(1-((6-(trifluoromethyl)pyridazin-3-yl)amino)butan-2-yl)benzamide]
- IC50 (hOX2R [1]): > 10 µM
- IC50 (hOX2R [2]): > 5.01 µM
- IC50 (hOX1R [3]): 0.2 µM
- IC50 (hOX1R [4]): 0.02 µM

SMILES: Cc1ccc(-n2nccn2)c(C(=O)N(C)[C@H](CNc2ccc(Cl)cn2)C(C)C)c1 [Example 49, (S)—N-(1-((5-chloropyridin-2-yl)amino)-3-methylbutan-2-yl)-N,5-dimethyl-2-(2H-1,2,3-triazol-2-yl)benzamide]
- IC50 (hOX2R [1]): > 5.01 µM
- IC50 (hOX2R [2]): > 3.98 µM
- IC50 (hOX1R [3]): 0.0316 µM
- IC50 (hOX1R [4]): 0.00501 µM

SMILES: CC[C@@H](CNc1cnc2ccccc2n1)N(C)C(=O)c1nc(C)ccc1-n1nccn1 [Example 65, (S)—N,6-dimethyl-N-(1-(quinoxalin-2-ylamino)butan-2-yl)-3-(2H-1,2,3-triazol-2-yl)picolinamide]
- IC50 (hOX2R [2]): 0.794 µM
- IC50 (hOX1R [4]): 0.002 µM

SMILES: Cc1ccc(-n2nccn2)c(C(=O)N(C)[C@H](CNc2ncc(C(F)(F)F)cn2)C(C)C)n1 [Example 66, (S)—N,6-dimethyl-N-(3-methyl-1-((5-(trifluoromethyl)pyrimidin-2-yl)amino)butan-2-yl)-3-(2H-1,2,3-triazol-2-yl)picolinamide]
- IC50 (hOX2R [2]): > 0.631 µM
- IC50 (hOX1R [4]): 0.0126 µM

SMILES: Cc1ccc(-n2nccn2)c(C(=O)N(C)[C@H](CNc2ncc3ccccc3n2)C(C)C)n1 [Example 68, (S)—N,6-dimethyl-N-(3-methyl-1-(quinazolin-2-ylamino)butan-2-yl)-3-(2H-1,2,3-triazol-2-yl)picolinamide]
- IC50 (hOX2R [2]): > 1 µM
- IC50 (hOX1R [4]): 0.0158 µM

SMILES: Cc1ccc(-n2nccn2)c(C(=O)N(C)[C@H](CNc2ccc(C(F)(F)F)cn2)C(C)C)n1 [Example 69, (S)—N,6-dimethyl-N-(3-methyl-1-((5-(trifluoromethyl)pyridin-2-yl)amino)butan-2-yl)-3-(2H-1,2,3-triazol-2-yl)picolinamide]
- IC50 (hOX2R [2]): 3.16 µM
- IC50 (hOX1R [4]): 0.00316 µM

SMILES: CC[C@@H](CNc1ccc(C(F)(F)F)cn1)N(CC)C(=O)c1nc(C)ccc1-n1nccn1 [Example 71, (S)—N-ethyl-6-methyl-3-(2H-1,2,3-triazol-2-yl)-N-(1-((5-(trifluoromethyl)pyridin-2-yl)amino)butan-2-yl)picolinamide]
- IC50 (hOX2R [2]): 0.316 µM
- IC50 (hOX1R [4]): 0.001 µM

SMILES: Cc1ccc(-n2nccn2)c(C(=O)N(C)[C@H](CNc2ncc(C(F)(F)F)cn2)C2CC2)n1 [Example 74, (S)—N-(1-cyclopropyl-2-((5-(trifluoromethyl)pyrimidin-2-yl)amino)ethyl)-N,6-dimethyl-3-(2H-1,2,3-triazol-2-yl)picolinamide]
- IC50 (hOX2R [2]): > 10 µM
- IC50 (hOX1R [4]): 2 µM

SMILES: CC[C@@H](CNc1ccc2ncccc2n1)N(C)C(=O)c1nc(C)ccc1-n1nccn1 [Example 76, (S)—N-(1-((1,5-naphthyridin-2-yl)amino)butan-2-yl)-N,6-dimethyl-3-(2H-1,2,3-triazol-2-yl)picolinamide]
- IC50 (hOX2R [2]): > 2 µM
- IC50 (hOX1R [4]): 0.0251 µM

SMILES: CC[C@@H](CN(C)c1ncc(C(F)(F)F)cn1)N(C)C(=O)c1nc(C)ccc1-n1nccn1 [Example 82, (S)—N,6-dimethyl-N-(1-(methyl(5-(trifluoromethyl)pyrimidin-2-yl)amino)butan-2-yl)-3-(2H-1,2,3-triazol-2-yl)picolinamide]
- IC50 (hOX2R [2]): > 10 µM
- IC50 (hOX1R [4]): 0.00794 µM

SMILES: CC[C@@H](CN(CCOC)c1ncc(C(F)(F)F)cn1)N(C)C(=O)c1nc(C)ccc1-n1nccn1 [Example 83, (S)—N-(1-((2-methoxyethyl)(5-(trifluoromethyl)pyrimidin-2-yl)amino)butan-2-yl)-N,6-dimethyl-3-(2H-1,2,3-triazol-2-yl)picolinamide]
- IC50 (hOX2R [2]): > 1 µM
- IC50 (hOX1R [4]): 0.0126 µM

SMILES: CC[C@@H](CNc1ncc(C(F)(F)F)cn1)N(C)C(=O)c1nc(C)ccc1-n1cncn1 [Example 89, (S)—N,6-dimethyl-3-(1H-1,2,4-triazol-1-yl)-N-(1-((5-(trifluoromethyl)pyrimidin-2-yl)amino)butan-2-yl)picolinamide formic acid salt]
- IC50 (hOX2R [2]): > 10 µM
- IC50 (hOX1R [4]): 2 µM

SMILES: CC[C@@H](CNc1ncc(C(F)(F)F)cn1)N(C)C(=O)c1nc(C)ccc1-n1cccn1 [Example 90, (S)—N,6-dimethyl-3-(1H-pyrazol-1-yl)-N-(1-((5-(trifluoromethyl)pyrimidin-2-yl)amino)butan-2-yl)picolinamide formic acid salt]
- IC50 (hOX2R [2]): > 1 µM
- IC50 (hOX1R [4]): 0.002 µM

SMILES: CC[C@@H](CNc1ncc(C(F)(F)F)cn1)N(C)C(=O)c1c(F)cccc1-n1nccn1 [Example 91, (S)-2-fluoro-N-methyl-6-(2H-1,2,3-triazol-2-yl)-N-(1-((5-(trifluoromethyl)pyrimidin-2-yl)amino)butan-2-yl)benzamide]
- IC50 (hOX2R [2]): > 7.94 µM
- IC50 (hOX1R [4]): 0.0251 µM
